Results taken from patent publication EP0073960A1, “2-Arylhydrazino-2-imidazolines, their acyl derivatives, process for their preparation and their use in the control of endoparasites and ectoparasites” (BAYER AG, priority 1981, dated 1983).

Test system: Boophilus microplus, Biarra-Stamm
Assay: In vitro tick test: inhibition of egg laying after dipping adult engorged female ticks
Conditions: Rhipicephalus microplus, 480 h, resistant strain, ticks dipped for 1 minute, read after 20 days, read-out: 50 % Hemmung bei einer Wirkstoff-konzentration in ppm a.i.von
Description: Lösungsmittel: 35 Gewichtsteile Ethylenglykolmonomethylether 35 Gewichtsteile Nonylphenolpolyglykolether
Zwecks Herstellung einer geeigneten Formulierung vermischt man drei Gewichtsteile Wirkstoff mit sieben Teilen des oben angegebenen Lösungsmittel-Emulgator-Gemisches und verdünnt das so erhaltene Emulsionskonzentrat mit Wasser auf die jeweils gewünschte Konzentration.
In diese Wirkstoffzubereitungen werden adulte, vollgesogene Zeckenweibchen der Art Boophilus microplus (resistent) eine Minute lang getaucht. Nach dem Tauchen von je 10 weiblichen Exemplaren überführt man diese in Petrischalen, deren Boden mit einer entsprechend großen Filterscheibe belegt ist.
Nach 20 Tagen wird die Wirksamkeit der Wirkstoffzubereitung bestimmt durch Ermittlung der Hemmung der Eiablage gegenüber unbehandelten Kontrollzecken. Die Wirkung drückt man in Prozent aus, wobei 100 % bedeutet, daß keine Eier mehr abgelegt wurden und 0 % besagt, daß die Zecken Eier in normaler Menge ablegten.
Untersuchter Wirkstoff, geprüfte Konzentration, getestete Parasiten und erhaltene Befunde gehen aus der folgenden Tabelle 1 hervor.

- IC50: > 5000 µg/mL
SMILES: Cc1cc(Cl)ccc1NC(=S)N(C)C [Chloromethiuron]
